# Biological target: T1, Gal4-HNF4α (human HNF4α LBD) (Homo sapiens, UniProt P41235)
# T1 construct: uniprot entry: P41235-1, residues 142-377; expressed in transfected cells; host or cells: HEK293T
# T1 sequence (P41235 142-377): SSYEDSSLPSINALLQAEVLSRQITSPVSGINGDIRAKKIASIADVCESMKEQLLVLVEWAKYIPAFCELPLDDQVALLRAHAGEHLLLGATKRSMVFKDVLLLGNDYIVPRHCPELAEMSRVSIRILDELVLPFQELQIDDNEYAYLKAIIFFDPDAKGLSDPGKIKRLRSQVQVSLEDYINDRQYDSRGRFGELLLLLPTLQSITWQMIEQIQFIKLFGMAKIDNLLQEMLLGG
# Assay: Hybrid Gal4-HNF4α reporter gene assay in transiently transfected HEK293T cells
# Type: cell-based
# Conditions: not given
row,SMILES,HNF4a-screening_activity_(mean_of_n=2)
1,"Oc1cccc2cccnc12 [Prestw-Frag-2592, Oc1cccc2cccnc12]",0.6969
2,"c1ccc2c3c([nH]c2c1)CCCC3 [Prestw-Frag-2780, C1CCc2c(C1)[nH]c1ccccc21]",0.7267
3,"CCOc1ccccc1OCC1CNCCO1 (centres unmarked) [Prestw-Frag-2992, CCOc1ccccc1OCC1CNCCO1]",0.7878

# Same assay, conditions: Table S1, primary screening, 50 µM
row,SMILES,HNF4a-screening_activity_(mean_of_n=2)
1,"CC(=O)N(CCC(=O)O)c1ccccc1 [Prestw-Frag-2487, CC(=O)N(CCC(O)=O)c1ccccc1]",0.9613
2,"c1ccc2cnccc2c1 [Prestw-Frag-2493, c1ccc2cnccc2c1]",1.292
3,"COc1ccc(O)cc1O [Prestw-Frag-2499, COc1ccc(O)cc1O]",1.183
4,"c1cnccn1 [Prestw-Frag-2501, c1cnccn1]",1.207
5,"CC(=O)c1ccc(O)cc1O [Prestw-Frag-2506, CC(=O)c1ccc(O)cc1O]",0.9153
6,"OCc1ccc(O)cc1 [Prestw-Frag-2532, OCc1ccc(O)cc1]",1.028
7,"c1ccc(C2CCNCC2)cc1 [Prestw-Frag-2537, C1CC(CCN1)c1ccccc1]",0.9586
8,"Sc1nc2ccccc2[nH]1 [Prestw-Frag-2539, Sc1nc2ccccc2[nH]1]",1.302
9,"O=C(O)c1ccccn1 [Prestw-Frag-2541, OC(=O)c1ccccn1]",0.9518
10,"Oc1nsnc1N1CCOCC1 [Prestw-Frag-2562, Oc1nsnc1N1CCOCC1]",1.981
11,"ClC1(Cl)CC1c1ccccc1 (centres unmarked) [Prestw-Frag-2566, ClC1(Cl)CC1c1ccccc1]",1.078
12,"COc1ccccc1N1CCN(CCCN)CC1 [Prestw-Frag-2569, COc1ccccc1N1CCN(CCCN)CC1]",1.212
13,"O=C(O)CNC(=O)c1ccccc1 [Prestw-Frag-2576, OC(=O)CNC(=O)c1ccccc1]",1.001
14,"O=C(O)COc1ccccc1 [Prestw-Frag-2577, OC(=O)COc1ccccc1]",1.064
15,"NC(=O)COc1ccccc1 [Prestw-Frag-2578, NC(=O)COc1ccccc1]",1.034
16,"O=C(O)Cc1ccccc1 [Prestw-Frag-2579, OC(=O)Cc1ccccc1]",1.086
17,"NC(=O)Cc1ccccc1 [Prestw-Frag-2580, NC(=O)Cc1ccccc1]",0.9823
18,"NC(=O)c1ccncc1 [Prestw-Frag-2587, NC(=O)c1ccncc1]",0.9347
19,"Clc1cccc2ncccc12 [Prestw-Frag-2593, Clc1cccc2ncccc12]",0.9438
20,"OC1c2ccccc2CCc2ccccc21 [Prestw-Frag-2600, OC1c2ccccc2CCc2ccccc12]",0.7017
21,"c1ccc(CCn2ccnc2)cc1 [Prestw-Frag-2608, C(Cn1ccnc1)c1ccccc1]",0.9707
22,"c1ccc(Cn2ccnc2)cc1 [Prestw-Frag-2620, C(c1ccccc1)n1ccnc1]",0.9802
23,"c1ccc(C(c2ccccc2)n2cncn2)cc1 [Prestw-Frag-2645, c1ncn(n1)C(c1ccccc1)c1ccccc1]",0.9885

row,SMILES,HNF4a-screening_activity_(mean_of_n=2)
1,"N#CC1(c2ccc(F)cc2)CCCCC1 [Prestw-Frag-2647, Fc1ccc(cc1)C1(CCCCC1)C#N]",0.99
2,"CC1(c2ccccc2)NC(=O)NC1=O (centres unmarked) [Prestw-Frag-2652, CC1(NC(=O)NC1=O)c1ccccc1]",0.789
3,"Cc1ccc(C#N)c(=O)[nH]1 [Prestw-Frag-2669, Cc1ccc(C#N)c(=O)[nH]1]",0.9816
4,"O=C1CCCc2[nH]ccc21 [Prestw-Frag-2675, O=C1CCCc2[nH]ccc12]",1.012
5,"O=C(O)CCc1ncc(-c2ccccc2)o1 [Prestw-Frag-2693, OC(=O)CCc1ncc(o1)-c1ccccc1]",0.8237
6,"Cc1nc(-c2ccccc2)c(-c2ccccc2)o1 [Prestw-Frag-2695, Cc1nc(c(o1)-c1ccccc1)-c1ccccc1]",1.374
7,"COc1ccc(C(C)=O)c(O)c1 [Prestw-Frag-2701, COc1ccc(C(C)=O)c(O)c1]",1.01
8,"Oc1ccccc1C1CCCC1 [Prestw-Frag-2706, Oc1ccccc1C1CCCC1]",0.8607
9,"CN1C(=O)CCC1=O [Prestw-Frag-2713, CN1C(=O)CCC1=O]",0.9037
10,"N=C(N)NC(=N)Nc1ccc(Cl)cc1 [Prestw-Frag-2722, NC(=N)NC(=N)Nc1ccc(Cl)cc1]",0.8665
11,"CCCOc1ccc(C(=O)OCC)cc1N [Prestw-Frag-2724, CCCOc1ccc(cc1N)C(=O)OCC]",1.372
12,"CS(=O)(=O)Nc1ccccc1 [Prestw-Frag-2755, CS(=O)(=O)Nc1ccccc1]",0.9874
13,"O=c1ccn([C@@H]2C[C@H](O)[C@@H](CO)O2)c(=O)[nH]1 [Prestw-Frag-2769, OC[C@H]1O[C@@H](C[C@@H]1O)n1ccc(=O)[nH]c1=O]",0.8958
14,"CCN(CC)CCOC(=O)C1(c2ccccc2)CCCC1 [Prestw-Frag-2774, CCN(CC)CCOC(=O)C1(CCCC1)c1ccccc1]",1.226
15,"c1cc2c(cc1OC[C@H]1CCCNC1)OCO2 [Prestw-Frag-2789, C(Oc1ccc2OCOc2c1)[C@H]1CCCNC1]",1.15
16,"CCNC(=O)c1cccnc1 [Prestw-Frag-2794, CCNC(=O)c1cccnc1]",1.068
17,"COC(=O)c1c[nH]c2ccccc12 [Prestw-Frag-2799, COC(=O)c1c[nH]c2ccccc12]",0.9379
18,"OC1CCN(c2ccccc2F)CC1 [Prestw-Frag-2803, OC1CCN(CC1)c1ccccc1F]",1.103
19,"Cc1ccccc1Nc1ncccc1C(=O)O [Prestw-Frag-2806, Cc1ccccc1Nc1ncccc1C(O)=O]",1.238
20,"O=C(O)c1cccnc1Nc1cccc(Cl)c1 [Prestw-Frag-2807, OC(=O)c1cccnc1Nc1cccc(Cl)c1]",1.808
21,"NCCCOc1cccc(CN2CCCCC2)c1 [Prestw-Frag-2808, NCCCOc1cccc(CN2CCCCC2)c1]",1.297
22,"Oc1cccc(CN2CCCCC2)c1 [Prestw-Frag-2809, Oc1cccc(CN2CCCCC2)c1]",1.12
23,"CCNC(=O)c1ccc(Cl)cc1 [Prestw-Frag-2818, CCNC(=O)c1ccc(Cl)cc1]",0.8348

row,SMILES,HNF4a-screening_activity_(mean_of_n=2)
1,"Nc1cccc(O)c1 [Prestw-Frag-2826, Nc1cccc(O)c1]",1.072
2,"C[C@@H](O)c1cc(C(F)(F)F)cc(C(F)(F)F)c1 [Prestw-Frag-2849, C[C@@H](O)c1cc(cc(c1)C(F)(F)F)C(F)(F)F]",1.171
3,"Clc1cccc(N2CCNCC2)c1Cl [Prestw-Frag-2853, Clc1cccc(N2CCNCC2)c1Cl]",1.239
4,"O=C1CCc2ccc(O)cc2N1 [Prestw-Frag-2854, Oc1ccc2CCC(=O)Nc2c1]",1.013
5,"c1ccc(C(c2ccccc2)n2ccnc2)cc1 [Prestw-Frag-2868, c1cn(cn1)C(c1ccccc1)c1ccccc1]",0.7887
6,"c1ccc(-c2nnn[nH]2)cc1 [Prestw-Frag-2887, c1ccc(cc1)-c1nnn[nH]1]",0.9719
7,"Oc1cc(Cl)c(Cl)cc1Cl [Prestw-Frag-2898, Oc1cc(Cl)c(Cl)cc1Cl]",5.433
8,"O=C(c1ccccc1)c1ccc(Br)cc1 [Prestw-Frag-2912, Brc1ccc(cc1)C(=O)c1ccccc1]",0.975
9,"NCCCCN1CCN(c2ncccn2)CC1 [Prestw-Frag-2921, NCCCCN1CCN(CC1)c1ncccn1]",1.125
10,"Nc1cccc(Nc2ncccn2)c1 [Prestw-Frag-2935, Nc1cccc(Nc2ncccn2)c1]",1.004
11,"CC(C)(C)OC(=O)/C=C/c1ccccc1 [Prestw-Frag-2947, CC(C)(C)OC(=O)\C=C\c1ccccc1]",1.247
12,"c1ccc(C2CNCCO2)cc1 (centres unmarked) [Prestw-Frag-2958, C1COC(CN1)c1ccccc1]",1.039
13,"COc1ccc(CC(=O)O)cc1 [Prestw-Frag-2960, COc1ccc(CC(O)=O)cc1]",0.9108
14,"CCc1ccc(CCO)nc1 [Prestw-Frag-2968, CCc1ccc(CCO)nc1]",1.216
15,"Nc1nc2c(s1)CCCC2 [Prestw-Frag-2972, Nc1nc2CCCCc2s1]",1.123
16,"CCOc1ccccc1O [Prestw-Frag-2995, CCOc1ccccc1O]",0.8201
17,"c1ccc(-n2ccc3ccccc32)cc1 [Prestw-Frag-3011, c1cc2ccccc2n1-c1ccccc1]",0.7452
18,"CN1CCN(S(=O)(=O)c2ccccc2)CC1 [Prestw-Frag-3012, CN1CCN(CC1)S(=O)(=O)c1ccccc1]",0.8018
19,"CNS(=O)(=O)Cc1ccc2[nH]cc(CCN)c2c1 [Prestw-Frag-3017, CNS(=O)(=O)Cc1ccc2[nH]cc(CCN)c2c1]",0.7522
20,"c1ccc2nccnc2c1 [Prestw-Frag-3033, c1ccc2nccnc2c1]",0.9657
21,"O=C1c2nccnc2C(O)N1c1ccc(Cl)cn1 (centres unmarked) [Prestw-Frag-3046, OC1N(C(=O)c2nccnc12)c1ccc(Cl)cn1]",0.8017
22,"Cc1ccc(N)c(C#N)c1 [Prestw-Frag-3060, Cc1ccc(N)c(c1)C#N]",0.8715
